Literature values in patent publication US9745567B2, “Compositions and methods for treating multiple sclerosis” (REVALESIO CORPORATION, priority 2008, dated 2017).
Where a name gives a salt, the structure may show the parent alone. Read-outs that look alike come from different tables or passages of the source.

Legend:
MMP-1 = target: T1, MMP-1 (Homo sapiens, UniProt P03956)
T1 sequence (P03956 100-469): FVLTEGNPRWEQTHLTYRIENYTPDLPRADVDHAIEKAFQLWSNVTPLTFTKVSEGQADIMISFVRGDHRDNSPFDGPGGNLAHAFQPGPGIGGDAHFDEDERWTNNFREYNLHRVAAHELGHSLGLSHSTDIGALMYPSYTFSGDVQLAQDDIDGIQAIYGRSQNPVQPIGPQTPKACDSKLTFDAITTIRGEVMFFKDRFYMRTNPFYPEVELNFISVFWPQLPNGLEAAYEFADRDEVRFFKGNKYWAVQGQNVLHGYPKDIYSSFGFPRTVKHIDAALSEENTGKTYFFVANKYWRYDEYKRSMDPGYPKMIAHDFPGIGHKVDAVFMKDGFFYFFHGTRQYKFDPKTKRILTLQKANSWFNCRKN

MMP-3 [1] = target: T2, MMP-3 (Homo sapiens, UniProt P08254)
Target sequence in this assay (P08254 100-477, species assumed): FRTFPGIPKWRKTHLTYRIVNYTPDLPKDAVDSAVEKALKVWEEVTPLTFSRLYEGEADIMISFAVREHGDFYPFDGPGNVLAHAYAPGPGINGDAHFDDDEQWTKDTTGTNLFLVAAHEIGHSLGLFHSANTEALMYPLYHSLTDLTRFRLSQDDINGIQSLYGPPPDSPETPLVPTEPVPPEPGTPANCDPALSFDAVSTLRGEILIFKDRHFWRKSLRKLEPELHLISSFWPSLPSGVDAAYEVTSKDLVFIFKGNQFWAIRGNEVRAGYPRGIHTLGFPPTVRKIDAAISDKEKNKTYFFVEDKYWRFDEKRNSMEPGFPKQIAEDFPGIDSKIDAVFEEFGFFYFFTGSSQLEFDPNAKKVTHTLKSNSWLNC

MMP-8 = MMP-8 (Homo sapiens, UniProt P22894)
Chain of MMP-8 (P22894 101-467, species assumed): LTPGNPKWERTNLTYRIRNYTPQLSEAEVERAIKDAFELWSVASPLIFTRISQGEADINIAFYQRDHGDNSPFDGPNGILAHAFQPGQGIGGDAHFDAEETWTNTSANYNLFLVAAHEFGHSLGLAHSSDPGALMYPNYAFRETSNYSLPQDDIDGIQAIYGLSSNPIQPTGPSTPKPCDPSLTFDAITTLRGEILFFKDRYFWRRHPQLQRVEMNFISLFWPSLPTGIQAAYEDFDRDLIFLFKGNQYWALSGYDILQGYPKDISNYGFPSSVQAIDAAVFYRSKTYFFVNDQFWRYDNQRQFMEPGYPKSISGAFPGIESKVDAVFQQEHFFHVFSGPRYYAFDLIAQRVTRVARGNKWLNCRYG

MMP-9 = MMP-9 (Homo sapiens, UniProt P14780)
Chain of MMP-9 (P14780 94-707, species assumed): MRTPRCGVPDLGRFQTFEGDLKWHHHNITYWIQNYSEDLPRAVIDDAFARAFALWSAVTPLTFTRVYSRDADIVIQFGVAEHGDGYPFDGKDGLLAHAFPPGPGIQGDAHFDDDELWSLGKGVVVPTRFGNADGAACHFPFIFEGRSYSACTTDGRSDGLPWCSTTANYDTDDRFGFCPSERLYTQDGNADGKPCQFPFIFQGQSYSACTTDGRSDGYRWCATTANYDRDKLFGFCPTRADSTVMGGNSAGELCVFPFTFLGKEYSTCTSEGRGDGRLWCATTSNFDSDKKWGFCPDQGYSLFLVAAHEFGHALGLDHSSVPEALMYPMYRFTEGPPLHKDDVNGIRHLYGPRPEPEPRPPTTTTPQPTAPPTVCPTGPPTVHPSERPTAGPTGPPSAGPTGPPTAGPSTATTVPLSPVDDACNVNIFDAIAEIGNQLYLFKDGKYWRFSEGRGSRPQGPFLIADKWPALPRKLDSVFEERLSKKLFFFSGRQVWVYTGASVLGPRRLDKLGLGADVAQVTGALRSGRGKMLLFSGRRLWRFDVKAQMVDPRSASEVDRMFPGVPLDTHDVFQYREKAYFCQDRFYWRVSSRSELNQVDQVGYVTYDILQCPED

MMP-13 = MMP-13 (Homo sapiens, UniProt P45452)
TACE = TACE (Homo sapiens, UniProt P78536)
Chain of TACE (P78536 215-824): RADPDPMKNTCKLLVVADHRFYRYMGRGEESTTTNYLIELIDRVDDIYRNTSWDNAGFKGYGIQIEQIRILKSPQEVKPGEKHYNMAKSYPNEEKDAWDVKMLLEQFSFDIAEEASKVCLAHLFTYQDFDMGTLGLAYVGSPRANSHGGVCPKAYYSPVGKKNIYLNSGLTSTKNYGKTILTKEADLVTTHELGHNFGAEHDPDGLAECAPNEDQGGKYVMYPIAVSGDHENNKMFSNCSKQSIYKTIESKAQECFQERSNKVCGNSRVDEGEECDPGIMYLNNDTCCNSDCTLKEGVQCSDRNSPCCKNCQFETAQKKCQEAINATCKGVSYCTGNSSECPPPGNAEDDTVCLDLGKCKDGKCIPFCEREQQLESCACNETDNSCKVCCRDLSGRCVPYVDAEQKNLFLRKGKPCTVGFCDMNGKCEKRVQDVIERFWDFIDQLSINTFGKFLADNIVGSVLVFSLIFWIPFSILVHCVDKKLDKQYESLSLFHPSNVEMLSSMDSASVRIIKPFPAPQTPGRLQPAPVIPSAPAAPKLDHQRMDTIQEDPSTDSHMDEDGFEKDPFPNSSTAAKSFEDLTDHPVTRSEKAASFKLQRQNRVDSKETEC

MMP-2 = target: T3, MMP-2 (Homo sapiens, UniProt P08253)
T3 sequence (P08253 110-660): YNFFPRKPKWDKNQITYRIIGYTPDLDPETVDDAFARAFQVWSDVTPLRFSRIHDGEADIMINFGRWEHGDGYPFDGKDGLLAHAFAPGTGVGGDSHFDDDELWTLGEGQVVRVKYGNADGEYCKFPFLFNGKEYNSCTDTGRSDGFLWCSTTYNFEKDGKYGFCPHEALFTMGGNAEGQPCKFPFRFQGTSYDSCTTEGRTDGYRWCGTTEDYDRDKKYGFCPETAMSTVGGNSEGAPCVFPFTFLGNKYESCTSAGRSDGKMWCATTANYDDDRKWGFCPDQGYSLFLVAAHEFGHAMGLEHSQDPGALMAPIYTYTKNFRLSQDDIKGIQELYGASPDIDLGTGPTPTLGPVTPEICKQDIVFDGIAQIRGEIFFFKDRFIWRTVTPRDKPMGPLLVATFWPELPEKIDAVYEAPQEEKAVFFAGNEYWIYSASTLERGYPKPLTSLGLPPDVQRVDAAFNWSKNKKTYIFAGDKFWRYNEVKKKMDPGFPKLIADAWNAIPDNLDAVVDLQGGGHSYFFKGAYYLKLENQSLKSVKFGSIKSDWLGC

MMP-7 = target: T4, MMP-7 (Homo sapiens, UniProt P09237)
T4 sequence (P09237 95-267): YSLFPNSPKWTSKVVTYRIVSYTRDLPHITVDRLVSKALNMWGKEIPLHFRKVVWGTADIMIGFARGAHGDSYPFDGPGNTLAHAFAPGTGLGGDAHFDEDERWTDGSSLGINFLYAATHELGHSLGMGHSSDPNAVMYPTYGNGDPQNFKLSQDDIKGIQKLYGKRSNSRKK

MMP-3 [2] = target: T2, MMP-3; conditions: for Ki values, human MMP-3 catalytic domain: competitive inhibitor
Target sequence in this assay (P08254 100-477): as the sequence (P08254 100-477, species assumed) above

[3] = target: T5, rabbit MMP-3 catalytic domains (Oryctolagus cuniculus, UniProt P28863); conditions: competitive inhibitor
T5 construct: rabbit MMP-3 catalytic domains
T5 sequence (P28863 101-273 limits assumed): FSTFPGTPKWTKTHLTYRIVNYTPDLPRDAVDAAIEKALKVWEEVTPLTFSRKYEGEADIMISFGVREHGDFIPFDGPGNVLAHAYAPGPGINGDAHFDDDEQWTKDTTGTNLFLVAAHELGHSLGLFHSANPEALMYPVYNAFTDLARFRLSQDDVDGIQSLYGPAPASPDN

[4] = target: murine macrophage metalloelastase (MME/MMP-12) (Mus musculus, UniProt P34960)
Chain of murine macrophage metalloelastase (MME/MMP-12) (P34960 110-473): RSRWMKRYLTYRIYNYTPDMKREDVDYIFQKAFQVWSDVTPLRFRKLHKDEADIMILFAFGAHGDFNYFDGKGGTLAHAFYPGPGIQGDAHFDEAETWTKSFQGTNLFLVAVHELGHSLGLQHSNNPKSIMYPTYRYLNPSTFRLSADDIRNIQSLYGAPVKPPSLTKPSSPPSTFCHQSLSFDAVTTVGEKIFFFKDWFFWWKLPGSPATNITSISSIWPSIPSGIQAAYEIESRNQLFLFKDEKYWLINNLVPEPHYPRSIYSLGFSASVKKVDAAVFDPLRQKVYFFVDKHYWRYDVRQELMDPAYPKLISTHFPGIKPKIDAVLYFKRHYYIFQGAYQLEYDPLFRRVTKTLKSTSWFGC

[5] = target: pseudolysin from P. aeruginosa (Pseudomonas aeruginosa, UniProt P14756)
Chain of pseudolysin from P. aeruginosa (P14756 198-498): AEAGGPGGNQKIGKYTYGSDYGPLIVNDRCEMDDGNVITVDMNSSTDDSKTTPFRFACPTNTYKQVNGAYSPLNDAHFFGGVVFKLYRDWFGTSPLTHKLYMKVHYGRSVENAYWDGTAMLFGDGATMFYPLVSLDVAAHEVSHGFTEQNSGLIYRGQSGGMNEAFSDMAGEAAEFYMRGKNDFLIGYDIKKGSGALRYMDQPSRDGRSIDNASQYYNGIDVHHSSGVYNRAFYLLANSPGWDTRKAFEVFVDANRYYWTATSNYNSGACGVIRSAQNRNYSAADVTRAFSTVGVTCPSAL

multiple sclerosis = conditions: clinical study, 943 patients with primary progressive MS

4-Abz-Gly-Pro-D-Leu-D-Ala-NH—OH [MMP Inhibitor I (FN-439)]
IC50 (MMP-1): 1000 nM
IC50 (MMP-3 [1]): 150000 nM
IC50 (MMP-8): 1000 nM
IC50 (MMP-9): 30000 nM

O=C(NCCCCN1CCOCC1)c1cc2ccccc2o1 [CL-82198]
inhibition of MMP-1 (MMP-1): Does not inhibit
inhibition of MMP-9 (MMP-9): Does not inhibit
IC50 (MMP-13): 10000 nM
inhibition of TACE (TACE): Does not inhibit

N=C(NCCCCCCNC(=N)NC(=N)Nc1ccc(Cl)cc1)NC(=N)Nc1ccc(Cl)cc1 [Chlorhexidine, Dihydrochloride]
inhibition of MMP-2 (MMP-2): Acts as a Zn2+-chelating inhibitor of MMP-2 and MMP-9.
inhibition of MMP-9 (MMP-9): Acts as a Zn2+-chelating inhibitor of MMP-2 and MMP-9.

CC(C)C[C@H](CC(=O)O)C(=O)N[C@@H](Cc1c[nH]c2ccccc12)C(=O)N[C@@H](C)c1ccccc1 [GM 1489]
Ki (MMP-1): 0.2 nM
Ki (MMP-2): 500 nM
Ki (MMP-3 [1]): 20000 nM
Ki (MMP-8): 100 nM
Ki (MMP-9): 100 nM

CNC(=O)C(CCc1ccccc1)NC(=O)C(CC(=O)NO)CC(C)C (centres unmarked) [MMP Inhibitor III]
IC50 (MMP-1): 7.4 nM
IC50 (MMP-2): 2.3 nM
IC50 (MMP-3 [1]): 135 nM
IC50 (MMP-7): 10 to 100 nM
IC50 (MMP-13): 1 to 10 nM

CCCCCCCC/C=C\CCCCCCCC(=O)NO [MMP-2 Inhibitor I (OA-Hy)]
Ki (MMP-2): 1700 nM

COC(=O)[C@H](Cc1ccccc1)NC(=O)Nc1nnc(S)s1 [MMP-2/MMP-3 Inhibitor I]
Ki (MMP-2): 17000 nM

CC(NC(=O)C(Cc1ccccc1)NC(=O)CCC(=O)NO)C(N)=O (centres unmarked) [MMP-2/MMP-9 Inhibitor IV, HONH—COCH2CH2CO-FA-NH2]
Ki (MMP-2): 13.9 nM
Ki (MMP-9): 600 nM

O=C(O)CCC(=NO)c1ccc2oc3ccccc3c2c1 [MMP-3 Inhibitor V, 4-Dibenzofuran-2′-yl-4-hydroximino-butyric Acid]
Ki values, human MMP-3 catalytic domain (MMP-3 [2]): the low μM range.
Ki values, rabbit MMP-3 catalytic domain [3]: the low μM range.

O=C(O)CCC(=NO)c1ccc(-c2ccccc2)cc1 [MMP-3 Inhibitor VI, 4-(4′-Biphenyl)-4-hydroxyimino-butyric Acid]
Ki values, human MMP-3 catalytic domain (MMP-3 [2]): the low μM range.
Ki values, rabbit MMP-3 catalytic domain [3]: the low μM range.

COc1ccc(S(=O)(=O)N(Cc2ccccc2)C(CC(C)C)C(=O)NO)cc1 (centres unmarked) [MMP-3 Inhibitor VIII]
Ki (MMP-3 [2]): 23 nM
IC50 [4]: 13 nM

O=S(=O)(CCC(S)CS)c1ccc(Oc2ccccc2)cc1 (centres unmarked) [compound 1, 4-(4-phenoxyphenylsulfonyl)butane-1,2-dithiol]
inhibition of MMP-2 (MMP-2): bind selectively and inhibit potently
inhibition of MMP-9 (MMP-9): bind selectively and inhibit potently

O=S(=O)(CCCC(S)CS)c1ccc(Oc2ccccc2)cc1 (centres unmarked) [compound 2, 5-(4-phenoxyphenylsulfonyl)pentane-1,2-dithiol]
inhibition of MMP-2 (MMP-2): bind selectively and inhibit potently
inhibition of MMP-9 (MMP-9): bind selectively and inhibit potently

H-Cys1-Thr-Thr-His-Trp-Gly-Phe-Thr-Leu-Cys10-OH (cyclic: 1 → 10) [MMP-2/MMP-9 Inhibitor III]
IC50 (MMP-2): 10000 nM

HONH—COCH2CH2CO-Phe-Ala-NH2 [MMP Inhibitor IV]
inhibition of pseudolysin from P. aeruginosa [5]: potently inhibits MMPs and

RCGVPD [MMP-3 Inhibitor I, Ac-Arg-Cys-Gly-Val-Pro-Asp-NH2]
IC50 (MMP-3 [1]): 5000 nM

glatiramer acetate
progression of disability and disease (multiple sclerosis): failed to halt the progression of disability and the disease
